Type in all cases: cell-based, human
One data set has as its system hPSCs. The data set can be described thus: BRY immunofluorescence in hPSC cultures treated with CHIR in mTeSR1. The following applies: 5˜M CHIR, 3D versus 2D cultures plated side-by-side. The text has this:
FIG. 2. Cavitated spheroids represent epiblast. (a) Schematic of serial passaging experiment. (b) Representative brightfield images of hPSCs in 3D cultures which were dissociated (colored frames) and passaged (matching colored arrows). Dashed arrows represent serial passages in the 3D condition. […] (c) Hematoxylin and eosin-stained sections of teratomas generated from hPSC serial 3D passages p3, p6, and p9 showing pigmented epithelium (ectoderm), cartilage (mesoderm), and glandular epithelium (endoderm). (d) Cell number (average of duplicate counts for each time point, or AVG of all time points) in 2D and 3D cultures 72 hours after plating. […] (h) Morphology and (i) quantification (n=3) of hPSC colonies cultured in mTeSR1 plus CHIR, compared to controls in mTeSR1 alone. […]
For fluorescence intensity quantifications, images were taken in a single imaging session and at identical exposures and processed identically. The number of cavitated colonies (ellipsoid with lumen) versus flat colonies (non-ellipsoid or without a lumen) was scored manually in phase contrast images of living cells, in which lumens were discerned more easily than in fixed samples. For apoptosis, cleaved caspase-3 expression was scored manually, confirmed by nuclear condensation, and divided by the total number of nuclei per wide-field epifluorescent image. […] Immunoblots were quantified using the ImageJ Gel Analyzer. […]

Another data set has as its system hPSC spheroids. The data set can be described thus: hPSC spheroid cavity formation (lumenogenesis) in 3D sandwich culture. The text has this: Cell lines included H9 (WA09), BJ, HDFn, hLR5, hfib2-iPS4, and hfib2-iPS5 (human) and J1, R1, and v6 (mouse). Cells were maintained feeder-free on 3% Reduced Growth Factor GelTrex™ (Life Technologies) for at least one passage in media (mTeSR1 for hPSCs; […] supplement+2i in for mESCs; hESC conditioned media (CM)+leukemia inhibitory factor (LIF)+dox for hLR5 iPSCs) and dissociated with Accutase® or TrypLE™. LD-iPSCs were derived from native hLR5 iPSCs by withdrawing LIF and doxycycline and substituting with FGF2. For thin gel sandwich colonies, cells were plated at 60,000 (primed) or 30,000 (native) cells/well of a 24-well plate or 4-well chamber slide pre-coated with GelTrex™ in media supplemented with 10 μM Rho-kinase inhibitor Y27632 (StemGent). The following day the media was replaced with 500 μL 1.5% GelTrex™ in mTeSR1. Media was changed after 24 hours. […]
For fluorescence intensity quantifications, images were taken in a single imaging session and at identical exposures and processed identically. The number of cavitated colonies (ellipsoid with lumen) versus flat colonies (non-ellipsoid or without a lumen) was scored manually in phase contrast images of living cells, in which lumens were discerned more easily than in fixed samples. For apoptosis, cleaved caspase-3 expression was scored manually, confirmed by nuclear condensation, and divided by the total number of nuclei per wide-field epifluorescent image. […] For each colony, the summed ZO-1 expressing area was expressed as a percentage of the total surface area and then averaged. To quantify intensities, line scans of equal length were drawn through randomly selected structures imaged with identical exposures to obtain raw fluorescence values in NIS Elements software (Nikon). […] For CHIR-induced differentiation, […] individual cells were identified in low-magnification immunofluorescence images using Cell Profiler 2.0 and fluorescence intensities were measured automatically. […] Immunoblots were quantified using the ImageJ Gel Analyzer. […]

The next data set relates to tubular organoids. The data set is described as follows: Transport of fluorescent cargoes in tubular organoids. How it is done: (§1) To test permeability, media was supplemented with 20 mM HEPES plus Lucifer Yellow™ carbohydrazide potassium salt (Invitrogen, 38 μM) and Rhodamine-8 isothiocyanate dextran (Sigma, 0.5 μM), and imaged by confocal microscopy. For microinjection, 5 μM rhodamine-conjugated dextran solution in mTeSR1 was diluted 1:1 with Phenol Red Solution (0.5%, Sigma) for visualization. 2 nl was microinjected via a pulled glass capillary microneedle on a Nanoject-2 micromanipulator, and monitored in real-time by wide-field epifluorescence. For TEER, 50,000 hPSCs were plated on 24-well transwell plates (Corning) pre-coated with dilute […]™. […] TEER was measured using an EVOM 2™ device (World Precision Instruments).
as §1, with “Rhodamine-B” for “Rhodamine-8”, “0.5” for “0.5 μM),”, “5” for “5 μM”

The subject of another data set is epiblast spheroids. The data set is described as follows: Epiblast spheroids treated with titrations of cisplatin and gentamicin (KIM-1, toxicity). The text has this:
FIG. 20. […] Scale bars, 50 μm.
(§2) FIG. 27. […] (a) Co-localization of KIM-1 antibody AKG7 with LTL or (b) with a second KIM-1 antibody (KIMlab2). […] (e) Phase contrast time course of tubules in culture. After 120 days of culture (d120), tubules were fixed and stained for LTL. (f) Whole well of a 96-well plate showing kidney organoids. Scale bars, 50 μm. Error bars, s.e.m.

The test system of a further data set is kidney organoids. The data set can be described thus: KIM-1 induction in kidney organoids treated with nephrotoxic drugs.
Source text: as §2

Entries after “also recorded” stand apart in the source; their conditions may differ.

With `Cc1c[nH]c(-c2cnc(NCCNc3ccc(C#N)cn3)nc2-c2ccc(Cl)cc2Cl)n1` [CHIR], the BRY expression result in the data set with hPSCs was “induced higher levels of BRY expression in 3D cultures than in 2D cultures”. For the same molecule, the spheroid formation result in the data set on hPSC spheroids (CHIR added at the time of sandwiching, in mTeSR1) is on record as “inhibited spheroid formation in a dose-dependent manner”.
With `O=C(O)CN(CCN(CC(=O)O)CC(=O)O)CC(=O)O` [EDTA], the “luminal RD signal intensity in loaded organoids” value in the data set on tubular organoids (0.5 mM EDTA for one hour) was “decreased”.
With `C/C1=C/C(=O)O[C@@H]2C[C@@H](CC[C@H](C)/C=C\CC1)O[C@@](O)([C@@H]1CSC(=O)N1)C2` [latrunculin (Lat)B, Latrunculin B], the “effect on RD accumulation in tubular organoids” value in the data set with tubular organoids (co-incubation, 2 μM LatB) is “significantly reduced RD accumulation”.
Regarding gentamicin, the “sensitivity of epiblast spheroids to drug” value with epiblast spheroids is on record as “exhibited dose-dependent sensitivity”. For the same molecule, the “KIM-1 upregulation in epiblast spheroids” value with epiblast spheroids (any dose including 5 mM gentamicin) is given as “did not upregulate KIM-1; also recorded: No KIM-1 expression is observed”. Also, the “KIM-1 expression in organoid tubules” value in the data set with kidney organoids (increasing concentrations, 36-48 hours, immunofluorescence) was “expressed apical kidney injury molecule-1 (KIM-1); also recorded: observed at moderate, sub-toxic doses”. In the data set with kidney organoids (kidney organoids), the “concentration sufficient to induce KIM-1 in kidney organoids” value was approximately 5000 µM.
Take protamine sulfate [PS]: in the data set on hPSC spheroids (8 μg/ml protamine sulfate), the 3D cavity formation result was “strongly inhibited 3D cavity formation” and the podocalyxin localization entry is recorded as “mislocalization of podocalyxin to dispersed patches”.

These data come from US10815460B2, “Three-dimensional differentiation of epiblast spheroids to kidney organoids models stage-specific epithelial physiology, morphogenesis, and disease” (THE BRIGHAM AND WOMEN'S HOSPITAL, INC., priority 2015, dated 2020).
